Literature values as cited in patent US20200113824A1, “DISPENSING CAP CONTAINING A SOLUBILISATE OF A […] ACTIVE AGENT OR DIETARY SUPPLEMENT” (priority 2017, published 2020).

Key:
murine gut microbiota = settings: promoting obesity and inflammatory bowel diseases
human CYP3A4 = human CYP3A4 (Homo sapiens, UniProt P08684)
P-glycoprotein = P-glycoprotein (Homo sapiens, UniProt P08183)
Sequence of P-glycoprotein (P08183 whole entry): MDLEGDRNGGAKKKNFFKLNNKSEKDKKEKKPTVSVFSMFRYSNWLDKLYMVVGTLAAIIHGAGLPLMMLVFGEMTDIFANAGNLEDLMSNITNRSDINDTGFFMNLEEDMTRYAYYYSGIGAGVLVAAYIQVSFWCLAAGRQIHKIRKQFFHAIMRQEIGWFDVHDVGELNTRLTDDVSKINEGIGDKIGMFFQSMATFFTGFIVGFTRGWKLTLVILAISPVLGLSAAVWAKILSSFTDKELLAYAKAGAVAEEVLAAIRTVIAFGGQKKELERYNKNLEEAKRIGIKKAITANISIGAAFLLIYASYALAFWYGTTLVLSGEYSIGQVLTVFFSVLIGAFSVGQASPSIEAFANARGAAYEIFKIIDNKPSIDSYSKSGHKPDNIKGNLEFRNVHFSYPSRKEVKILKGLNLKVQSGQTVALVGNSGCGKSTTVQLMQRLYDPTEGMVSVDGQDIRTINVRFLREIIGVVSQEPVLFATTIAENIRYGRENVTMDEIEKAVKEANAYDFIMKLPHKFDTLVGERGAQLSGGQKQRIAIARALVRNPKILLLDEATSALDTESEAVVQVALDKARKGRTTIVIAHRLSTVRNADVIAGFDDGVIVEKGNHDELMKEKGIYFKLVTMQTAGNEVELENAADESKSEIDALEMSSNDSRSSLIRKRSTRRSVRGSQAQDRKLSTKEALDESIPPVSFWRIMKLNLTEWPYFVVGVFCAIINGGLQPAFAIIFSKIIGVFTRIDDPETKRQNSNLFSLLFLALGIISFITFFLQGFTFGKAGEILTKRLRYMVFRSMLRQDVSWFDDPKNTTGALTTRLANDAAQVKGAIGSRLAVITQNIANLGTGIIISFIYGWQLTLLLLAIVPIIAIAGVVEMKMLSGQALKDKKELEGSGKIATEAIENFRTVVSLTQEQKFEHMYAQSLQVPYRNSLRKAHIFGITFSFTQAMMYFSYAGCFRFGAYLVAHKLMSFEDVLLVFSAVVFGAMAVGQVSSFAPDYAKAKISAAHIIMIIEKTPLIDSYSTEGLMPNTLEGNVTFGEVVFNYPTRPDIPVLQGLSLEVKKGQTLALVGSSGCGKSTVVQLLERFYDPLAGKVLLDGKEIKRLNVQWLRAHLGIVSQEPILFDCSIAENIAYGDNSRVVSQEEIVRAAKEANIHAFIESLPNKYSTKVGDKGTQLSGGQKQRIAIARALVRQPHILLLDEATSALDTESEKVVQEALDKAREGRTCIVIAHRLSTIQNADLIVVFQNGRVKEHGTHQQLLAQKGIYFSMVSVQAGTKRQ

Sequence of human CYP3A4 (P08684 whole entry): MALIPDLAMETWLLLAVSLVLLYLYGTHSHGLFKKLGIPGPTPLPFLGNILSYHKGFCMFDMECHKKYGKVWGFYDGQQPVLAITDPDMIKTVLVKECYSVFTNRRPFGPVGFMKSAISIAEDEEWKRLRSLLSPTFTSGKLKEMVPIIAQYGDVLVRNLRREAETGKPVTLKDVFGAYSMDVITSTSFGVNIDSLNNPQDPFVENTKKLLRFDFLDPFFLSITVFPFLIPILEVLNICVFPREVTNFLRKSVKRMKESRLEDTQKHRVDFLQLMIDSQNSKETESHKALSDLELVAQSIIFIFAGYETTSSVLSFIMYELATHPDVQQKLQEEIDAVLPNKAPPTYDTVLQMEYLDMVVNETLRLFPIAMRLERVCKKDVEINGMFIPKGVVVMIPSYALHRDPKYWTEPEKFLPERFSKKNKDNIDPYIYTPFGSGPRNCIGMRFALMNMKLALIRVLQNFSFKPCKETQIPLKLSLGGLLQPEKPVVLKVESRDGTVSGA

Row | Compound | effects on murine gut microbiota (murine gut microbiota) | inhibition of human CYP3A4 (human CYP3A4) | inhibition of P-glycoprotein (P-glycoprotein)
1 | Polysorbate-80 | detrimental effects | – | –
2 | O=C(C=CC=Cc1ccc2c(c1)OCO2)N1CCCCC1 [Piperine, 1-[5-(1,3-benzodioxol-5-yl)-1-oxo-2,4-pentadienyl]piperidine] | – | inhibit | inhibit
